Test results from patent US20010056085A1, “Methods of using vesicant drug formulations” (priority 1996, published 2001).
Where two headings read alike, the source gives them in different places.

Assay: Half-life of ADR destruction by UVA light in the presence of test compounds (decrease in absorbance at 480 nm)
Assay type: physicochemical
[1] = UVA light, 100 μM test compound alone
[2] = UVA light, 100 μM test compound with 0.5 μM riboflavin

Structure (SMILES): COc1ccc2cc(CC(=O)O)ccc2c1 [6-Methoxynaphthalene-2-acetic acid]
- Half-Life of ADR Destruction, 100 μM Test Compound [1]: 17.7 min
- Half-Life of ADR Destruction, 100 μM Test Compound and 0.5 μM Riboflavin [2]: 5.38 min

Structure (SMILES): Nc1ccc(N)c(S(=O)(=O)O)c1 [2,5-Diamino Benzene sulfonic acid]
- Half-Life of ADR Destruction, 100 μM Test Compound and 0.5 μM Riboflavin [2]: 27.4 min

Structure (SMILES): C[S+](C)[O-] [Dimethylsulfoxide]
- Half-Life of ADR Destruction, Test Compound (UVA light, dimethylsulfoxide 4% = 0.56 M alone): 33.5 min
- Half-Life of ADR Destruction, Test Compound and 0.5 μM Riboflavin (UVA light, dimethylsulfoxide 4% = 0.56 M with 0.5 μM riboflavin): 27.4 min
- Half-Life of ADR Destruction, Test Compound and 0.5 μM Riboflavin (UVA light, dimethylsulfoxide 40% - 5.6 M with 0.5 μM riboflavin): 10.4 min

Structure (SMILES): CCc1ccc[nH]1 [2-Ethyl Pyrrole]
- Half-Life of ADR Destruction, 100 μM Test Compound and 0.5 μM Riboflavin [2]: 10.0 min

Structure (SMILES): Cc1cc(C)cc(N)c1 [3,5-Dimethyl Aniline]
- Half-Life of ADR Destruction, 100 μM Test Compound and 0.5 μM Riboflavin [2]: 100.4 ± 70.9 min

Structure (SMILES): O=c1[nH]c(=O)c2nccnc2[nH]1 [Lumazine]
- Half-Life of ADR Destruction, 100 μM Test Compound [1]: 5.79 min
- Half-Life of ADR Destruction, 100 μM Test Compound and 0.5 μM Riboflavin [2]: 3.31 min

Structure (SMILES): O=c1c2ccccc2oc2ncccc12 [1-Azaxanthrone]
- Half-Life of ADR Destruction, 100 μM Test Compound [1]: 2.87 min
- Half-Life of ADR Destruction, 100 μM Test Compound and 0.5 μM Riboflavin [2]: 2.60 min

Structure (SMILES): COc1ccc2cc(C#N)ccc2c1 [6-Methoxynaphthalene-2-nitrile]
- Half-Life of ADR Destruction, 100 μM Test Compound [1]: 23.2 min
- Half-Life of ADR Destruction, 100 μM Test Compound and 0.5 μM Riboflavin [2]: 20.1 min

Structure (SMILES): O=C(O)Cc1ccc(O)cc1 [4-Hydroxy Phenylacetic Acid]
- Half-Life of ADR Destruction, 100 μM Test Compound and 0.5 μM Riboflavin [2]: 75.3 min

Structure (SMILES): O=c1ccoc2ccccc12 [Compound 4-Chromone, 4-Chromone]
- Half-Life of ADR Destruction, 100 μM Test Compound [1]: 43.0 min

Structure (SMILES): COc1ccc(C(C)=O)c(O)c1 [2′-Hydroxy-4-methoxyaceotphenone]
- Half-Life of ADR Destruction, 100 μM Test Compound: 75.3 min

Structure (SMILES): OCCc1c[nH]c2ccccc12 [3-Indoleethanol]
- Half-Life of ADR Destruction, 100 μM Test Compound and 0.5 μM Riboflavin [2]: 8.14 min

Structure (SMILES): NC(=O)c1ccccc1N [2-Aminobenzamide]
- Half-Life of ADR Destruction, 100 μM Test Compound and 0.5 μM Riboflavin [2]: 33.5 min

Structure (SMILES): Cc1ccc2[nH]ccc2c1 [5-Methyl Indole]
- Half-Life of ADR Destruction, 100 μM Test Compound and 0.5 μM Riboflavin [2]: 8.85 min

Structure (SMILES): O=S(O)c1ccccc1 [Benzenesulfinic acid]
- Half-Life of ADR Destruction, 100 μM Test Compound and 0.5 μM Riboflavin [2]: 15.8 min

Structure (SMILES): Nc1ccc(OCc2ccccc2)cc1 [4-Benzyloxyaniline]
- Half-Life of ADR Destruction, 100 μM Test Compound [1]: 100.3 min
- Half-Life of ADR Destruction, 100 μM Test Compound and 0.5 μM Riboflavin [2]: 100.3 min

Structure (SMILES): COc1ccc2c(CC(=O)O)cc(=O)oc2c1 [7-Methoxycoumarin-4-acetic acid]
- Half-Life of ADR Destruction, 100 μM Test Compound [1]: 14.3 min
- Half-Life of ADR Destruction, 100 μM Test Compound and 0.5 μM Riboflavin [2]: 11.6 min

Structure (SMILES): O=S(=O)(O)c1ccccc1 [Benzenesulfonic acid]
- Half-Life of ADR Destruction, 100 μM Test Compound and 0.5 μM Riboflavin [2]: 50.2 min

Structure (SMILES): COc1ccc(CC(=O)O)cc1 [4-Methoxy Phenylacetic Acid]
- Half-Life of ADR Destruction, 100 μM Test Compound [1]: 50.2 min
- Half-Life of ADR Destruction, 100 μM Test Compound and 0.5 μM Riboflavin [2]: 30.1 min

Structure (SMILES): C=C1C[C@]23C[C@@]1(O)CC[C@H]2[C@@]12C=C[C@H](O)[C@@](C)(C(=O)O1)[C@H]2[C@@H]3C(=O)O [Gibberellic acid]
- Half-Life of ADR Destruction, 100 μM Test Compound [1]: 43.0 min

Structure (SMILES): Nc1ccccc1C(=O)c1ccccc1 [2-Aminobenzophenone]
- Half-Life of ADR Destruction, 100 μM Test Compound and 0.5 μM Riboflavin: 16.7 min

Structure (SMILES): O=C(O)CSc1ccc2ccccc2c1 [2-(2-naphthylthio) Acetic acid]
- Half-Life of ADR Destruction, 100 μM Test Compound [1]: 9.41 min
- Half-Life of ADR Destruction, 100 μM Test Compound and 0.5 μM Riboflavin [2]: 8.14 min

Structure (SMILES): Nc1cccc(CC(=O)O)c1 [3-Amino Phenylacetic acid]
- Half-Life of ADR Destruction, 100 μM Test Compound and 0.5 μM Riboflavin [2]: 13.7 min

Structure (SMILES): c1ccc2c(c1)CCCN2 [1,2,3,4-Tetrahydroquinoline]
- Half-Life of ADR Destruction, 100 μM Test Compound and 0.5 μM Riboflavin [2]: 100.3 min

Structure (SMILES): Nc1cc(F)cc(F)c1 [3,5-Difluoro Aniline]
- Half-Life of ADR Destruction, 100 μM Test Compound and 0.5 μM Riboflavin [2]: 15.1 min

Structure (SMILES): CC(=O)c1ccc2[nH]c3ccccc3c2c1 [3-Acetylcarbazole]
- Half-Life of ADR Destruction, 100 μM Test Compound (UVA light, test compound alone, +4% DMSO): 30.1 min
- Half-Life of ADR Destruction, 100 μM Test Compound and 0.5 μM Riboflavin (UVA light, with 0.5 μM riboflavin, +4% DMSO): 23.2 min

Structure (SMILES): Nc1cccc2c1Cc1ccccc1C2 [1-Amino-9,10-dihydroanthracene]
- Half-Life of ADR Destruction, 100 μM Test Compound [1]: 75.3 min
- Half-Life of ADR Destruction, 100 μM Test Compound and 0.5 μM Riboflavin [2]: 75.3 min

Structure (SMILES): COc1ccc(C=CC(=O)O)cc1 [4-Methoxy Cinnamic Acid]
- Half-Life of ADR Destruction, 100 μM Test Compound [1]: 75.3 min
- Half-Life of ADR Destruction, 100 μM Test Compound and 0.5 μM Riboflavin [2]: 5.90 min

Structure (SMILES): Nc1ncnc2nc[nH]c12 [Adenine]
- Half-Life of ADR Destruction, 100 μM Test Compound [1]: 50.2 min
- Half-Life of ADR Destruction, 100 μM Test Compound and 0.5 μM Riboflavin [2]: 27.4 min

Structure (SMILES): O=Cc1ccc2ccccc2c1 [2-Naphthaldehyde]
- Half-Life of ADR Destruction, 100 μM Test Compound [1]: 6.14 min
- Half-Life of ADR Destruction, 100 μM Test Compound and 0.5 μM Riboflavin [2]: 5.68 min

Structure (SMILES): Nc1cccc(OCc2ccccc2)c1 [3-Benzyloxyaniline]
- Half-Life of ADR Destruction, 100 μM Test Compound: 43.0 min
- Half-Life of ADR Destruction, 100 μM Test Compound and 0.5 μM Riboflavin: 17.7 min

Structure (SMILES): O=C(O)c1cccc2c1-c1ccccc1C2 [4-Fluorene Carboxylic acid]
- Half-Life of ADR Destruction, 100 μM Test Compound [1]: 30.1 min
- Half-Life of ADR Destruction, 100 μM Test Compound and 0.5 μM Riboflavin [2]: 18.8 min

Structure (SMILES): O=C(O)Cc1ccc(-c2ccccc2)cc1 [4-Phenyl Phenylacetic Acid]
- Half-Life of ADR Destruction, 100 μM Test Compound [1]: 43.0 min
- Half-Life of ADR Destruction, 100 μM Test Compound and 0.5 μM Riboflavin [2]: 27.4 min

Structure (SMILES): OCCc1ccccc1 [Phenylethyl Alcohol]
- Half-Life of ADR Destruction, 100 μM Test Compound [1]: 43.0 min

Structure (SMILES): NC(=O)c1ccc(N)cc1 [4-Aminobenzamide]
- Half-Life of ADR Destruction, 100 μM Test Compound and 0.5 μM Riboflavin [2]: 13.4 ± 4.7 min

Structure (SMILES): C1=CCNC1 [Compound 3-Pyrroline, 3-Pyrroline]
- Half-Life of ADR Destruction, 100 μM Test Compound and 0.5 μM Riboflavin [2]: 43.0 min

Structure (SMILES): Cc1cc2cccc(C)c2[nH]1 [2,7-Dimethyl Indole]
- Half-Life of ADR Destruction, 100 μM Test Compound and 0.5 μM Riboflavin [2]: 6.27 min

Structure (SMILES): NC1c2ccccc2-c2ccccc21 [9-Amino Fluorene]
- Half-Life of ADR Destruction, 100 μM Test Compound [1]: 75.3 min
- Half-Life of ADR Destruction, 100 μM Test Compound and 0.5 μM Riboflavin [2]: 50.2 min

Structure (SMILES): Nc1cc(N)cc(CO)c1 [3,5-Diamino Benzyl Alcohol]
- Half-Life of ADR Destruction, 100 μM Test Compound and 0.5 μM Riboflavin [2]: 75.3 min

Structure (SMILES): NCC(O)c1ccc(O)cc1 (stereo not drawn) [4-Hydroxy-β-hydroxy Phenethylamine]
- Half-Life of ADR Destruction, 100 μM Test Compound and 0.5 μM Riboflavin [2]: 50.2 min

Structure (SMILES): Nc1ccc(F)cc1 [4-Fluoro Aniline]
- Half-Life of ADR Destruction, 100 μM Test Compound and 0.5 μM Riboflavin [2]: 12.0 min

Structure (SMILES): Nc1ccc(S(N)(=O)=O)cc1 [4-Amino Benzenesulfonamide]
- Half-Life of ADR Destruction, 100 μM Test Compound and 0.5 μM Riboflavin: 25.1 min

Structure (SMILES): CCC(=O)c1ccccc1 [Propriophenone]
- Half-Life of ADR Destruction, 100 μM Test Compound: 43.0 min
